Experimental findings from PMC11555526, “Development of 2-Aminoadenine-Based Proteolysis-Targeting Chimeras (PROTACs) as Novel Potent Degraders of Monopolar Spindle 1 and Aurora Kinases” (ACS Pharmacology & Translational Science, 2024) are described below.

Experiment [1] deals with T1, TTK (MV4-11^HiBiT-TTK cells) (Homo sapiens, UniProt P33981).
T1 construct: expressed in transfected cells; host or cells: MV4-11, lentiviral transduction (pRRL-PGK-HiBiT entry vector)
T1 sequence (P33981 1-857): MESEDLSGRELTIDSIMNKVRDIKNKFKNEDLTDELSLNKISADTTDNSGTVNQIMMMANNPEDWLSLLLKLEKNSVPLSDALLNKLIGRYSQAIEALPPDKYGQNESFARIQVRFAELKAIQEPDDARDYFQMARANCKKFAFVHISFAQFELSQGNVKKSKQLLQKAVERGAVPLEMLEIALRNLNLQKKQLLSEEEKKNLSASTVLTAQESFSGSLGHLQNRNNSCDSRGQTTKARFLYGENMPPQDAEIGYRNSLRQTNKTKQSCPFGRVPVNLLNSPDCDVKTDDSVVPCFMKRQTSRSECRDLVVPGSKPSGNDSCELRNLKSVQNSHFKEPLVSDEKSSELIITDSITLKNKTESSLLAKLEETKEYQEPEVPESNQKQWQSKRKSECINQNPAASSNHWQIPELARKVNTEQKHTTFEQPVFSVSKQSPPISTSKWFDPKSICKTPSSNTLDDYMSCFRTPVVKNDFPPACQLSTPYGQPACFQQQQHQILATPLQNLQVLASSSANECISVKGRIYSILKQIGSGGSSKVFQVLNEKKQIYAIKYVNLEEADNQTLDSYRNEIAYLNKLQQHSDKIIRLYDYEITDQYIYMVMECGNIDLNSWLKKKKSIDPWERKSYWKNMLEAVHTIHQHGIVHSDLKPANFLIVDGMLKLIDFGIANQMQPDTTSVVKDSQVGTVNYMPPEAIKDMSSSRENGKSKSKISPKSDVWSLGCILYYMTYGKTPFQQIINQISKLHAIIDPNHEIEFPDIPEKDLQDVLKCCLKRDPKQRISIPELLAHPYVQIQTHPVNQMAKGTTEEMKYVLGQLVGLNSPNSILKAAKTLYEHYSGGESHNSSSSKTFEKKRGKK
The experiment can be described thus: HiBiT assay, TTK degradation. As to conditions: 6 h treatment, MV4-11^HiBiT-TTK cells; for DC50: read-out: DC50 (half-maximal degradation concentration) TTK. Also on record: key to Dmax (maximal degradation) TTK: compounds with degradation less than 15% reported as “inactive”. It is filed as cell-based. The method, then: (§1) The effects of the synthesized compounds on AURKA, AURKB, and TTK mitotic kinases were then assessed in cellular systems. For this, HiBiT cell lines were generated for all three mitotic kinases. A small 11 amino acid peptide fragment of luciferase (HiBiT) was fused to the coding sequence of the proteins and stably transduced in the MV4-11 cell line (MV4-11^AURKA-HiBiT, MV4-11^AURKB-HiBiT, and MV4-11^HiBiT-TTK).
(§2) The stable cell lines MV4-11^AURKA-HiBiT, MV4-11^AURKB-HiBiT, and MV4-11^HiBiT-TTK cells were generated by lentiviral infection. Lentivirus was produced using the respective HiBiT vector, plasmids psPAX2, and pMD2.G in HEK293 cells. The virus supernatant was filtered and MV4-11 cells were doubly infected with the supernatant. The cells were selected after 48 h of infection until the control cells were dead to get the stable cell line.
(§3) The cells stably expressing HiBiT-tagged protein were seeded into 96-well plates and treated with serial dilutions of compounds for the indicated time points. At the end point, the assay was performed using the Nano-Glo HiBiT Lytic Detection System (Promega) according to the manufacturer’s instruction. Luminescence was measured on a GloMax 96 Microplate Luminometer (Promega) or a Tecan Spark Multiplate reader (Tecan). DC50 was calculated using concentrations showing sigmoidal behavior with the dose–response (four parameters) equation in Prism (GraphPad).

Experiment [2] has as its system MV4-11 cells (naive). The experiment can be described thus: alamarBlue cell viability assay. As to conditions: 72 h treatment, MV4-11 cells (naive); for EC50: read-out: EC50 (concentration that decreases cell viability by 50%). The format is cell-based, human. The method, then:
Finally, to study the effect of the compounds on cancer cell survival, MV4-11 cells were treated with various concentrations of the chimeras and the cell viability was assessed after 72 h. […] As opposed to the parent inhibitor MPS1-IN-3, its derivatives except 40 were not cytotoxic (Figure S7B, Table 5). […] In addition, most of the SF1-based derivatives affected the viability of MV4-11 cells in nanomolar concentrations (Table 5).
For the alamarBlue cell viability assay, cells were seeded in 96-well plates and treated with indicated concentrations of the compounds or vehicle. A few hours before the experimental end point (72 h, unless otherwise stated), the cells were incubated with the alamarBlue reagent. Finally, fluorescence (excitation: 550 nm and emission: 600 nm) or absorbance (570 nm with reference at 600 nm) was measured on a Tecan Spark Multiplate reader (Tecan).
A general note: The colour change of resazurin is a common sign of viable cells or microbes.

The target in experiment [3] is T2, AURKB (MV4-11^AURKB-HiBiT cells) (Homo sapiens, UniProt Q96GD4).
T2 construct: expressed in transfected cells; host or cells: MV4-11, lentiviral transduction (pRRL-PGK vector)
The experiment can be described thus: HiBiT assay, AURKB degradation. The format is cell-based. Details: key to Dmax (maximal degradation) AURKB: compounds with degradation less than 15% reported as “inactive”. As to conditions: 6 h treatment; for DC50: read-out: DC50 (half-maximal degradation concentration) AURKB. The protocol:
as §1, §2, §3
(The HiBiT peptide binds its large partner to form an active luciferase.)

The target in experiment [4] is T3, AURKA (MV4-11^AURKA-HiBiT cells) (Homo sapiens, UniProt O14965).
T3 construct: expressed in transfected cells; host or cells: MV4-11, lentiviral transduction
T3 sequence (O14965 1-403): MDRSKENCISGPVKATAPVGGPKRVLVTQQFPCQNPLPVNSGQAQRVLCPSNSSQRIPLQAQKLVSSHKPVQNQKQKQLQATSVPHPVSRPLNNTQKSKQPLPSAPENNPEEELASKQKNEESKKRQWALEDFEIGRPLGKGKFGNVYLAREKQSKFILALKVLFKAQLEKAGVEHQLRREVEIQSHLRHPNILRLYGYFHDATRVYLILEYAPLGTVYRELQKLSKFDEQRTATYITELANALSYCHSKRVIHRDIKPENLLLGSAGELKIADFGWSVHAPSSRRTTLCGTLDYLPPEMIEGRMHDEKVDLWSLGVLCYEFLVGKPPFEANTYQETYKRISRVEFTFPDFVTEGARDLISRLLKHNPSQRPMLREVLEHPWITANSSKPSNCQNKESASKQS
The experiment is described as follows: HiBiT assay, AURKA degradation. The format is cell-based. Details: key to Dmax (maximal degradation) AURKA: compounds with degradation less than 15% reported as “inactive”. As to conditions: 6 h treatment, MV4-11^AURKA-HiBiT cells; for DC50: read-out: DC50 (half-maximal degradation concentration) AURKA. The method, then:
as §1, §2, §3

The structures appear in SMILES notation. Read-outs that look alike come from different tables or passages of the source.

For orientation: Dmax means the greatest extent of degradation seen.

T2 sequence (Q96GD4 1-345 isoform Q96GD4-5): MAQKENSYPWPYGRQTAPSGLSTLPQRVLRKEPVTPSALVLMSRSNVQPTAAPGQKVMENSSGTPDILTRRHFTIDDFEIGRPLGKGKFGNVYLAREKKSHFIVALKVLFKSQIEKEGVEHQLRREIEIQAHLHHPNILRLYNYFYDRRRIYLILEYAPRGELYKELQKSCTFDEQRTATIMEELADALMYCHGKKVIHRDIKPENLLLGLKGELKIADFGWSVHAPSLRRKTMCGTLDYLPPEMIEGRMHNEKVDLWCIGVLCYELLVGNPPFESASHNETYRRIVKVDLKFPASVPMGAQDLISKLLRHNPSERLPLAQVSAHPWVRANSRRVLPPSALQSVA

As for `CC(C)S(=O)(=O)c1ccccc1Nc1nc(Nc2ccc(N3CCN(CCCCC(=O)Nc4cccc5c4C(=O)N(C4CCC(=O)NC4=O)C5=O)CC3)cc2)nc2[nH]cnc12` (centres unmarked) [Compound 28], in experiment [1], the “Dmax (maximal degradation) TTK” value was 59.05% and the DC50 worked out at 84.5 nM. For the same molecule, the EC50 in experiment [2] was 126 nM. Moreover, in experiment [3], the “Dmax (maximal degradation) AURKB” value came to 45.95% and the DC50 is 273 nM. In addition, in experiment [4], the “Dmax (maximal degradation) AURKA” value is on record as 69.70% and the DC50 was 4.85 nM.
For `c1nc2c(NC3CCCCC3)nc(Nc3ccc(N4CCNCC4)cc3)nc2[nH]1` [azareversine, reference compound], the DC50 was found to be 118 nM in experiment [1], 79.3 nM in experiment [3] and 99.5 nM in experiment [4]. Also, the results for the Dmax in experiment [1] (read-out: Dmax (maximal degradation) TTK), in experiment [3] (read-out: Dmax (maximal degradation) AURKB) and in experiment [4] (read-out: Dmax (maximal degradation) AURKA) were 47.7%, 44.5% and 52.6%, respectively. Also, in experiment [2] (Homo sapiens), the EC50 is 123 nM.
On to `COc1cc(N2CCC(OCC(=O)NCCCCNc3cccc4c3C(=O)N(C3CCC(=O)NC3=O)C4=O)CC2)ccc1Nc1nc(Nc2ccccc2S(=O)(=O)C(C)C)c2nc[nH]c2n1` (centres unmarked) [Compound 36], for which, in experiment [1], the “DC50 (half-maximal degradation concentration) TTK” value was “– (compounds with degradation less than 25% were not calculated and reported as “–”)”; the “Dmax (maximal degradation) TTK” value was “inactive”. Moreover, the “EC50 (concentration that decreases cell viability by 50%)” value in experiment [2] is “— (compounds with decrease of cell viability less than 50% were not calculated and reported as “—”)”. Moreover, in experiment [3], the “DC50 (half-maximal degradation concentration) AURKB” value is “– (compounds with degradation less than 25% were not calculated and reported as “–”)”; the “Dmax (maximal degradation) AURKB” value is “inactive”. Besides, in experiment [4], the “DC50 (half-maximal degradation concentration) AURKA” value was “– (compounds with degradation less than 25% were not calculated and reported as “–”)”; the “Dmax (maximal degradation) AURKA” value was “inactive”.
In the case of `COc1cc(N2CCC(OCC(=O)NCCOCCOCCNc3cccc4c3C(=O)N(C3CCC(=O)NC3=O)C4=O)CC2)ccc1Nc1nc(Nc2ccccc2S(=O)(=O)C(C)C)c2nc[nH]c2n1` (centres unmarked) [Compound 38], in experiment [1], the “DC50 (half-maximal degradation concentration) TTK” value was “– (compounds with degradation less than 25% were not calculated and reported as “–”)”; the “Dmax (maximal degradation) TTK” value worked out at 16.10%. In addition, in experiment [2], the “EC50 (concentration that decreases cell viability by 50%)” value is “— (compounds with decrease of cell viability less than 50% were not calculated and reported as “—”)”. Moreover, in experiment [3], the “DC50 (half-maximal degradation concentration) AURKB” value was “– (compounds with degradation less than 25% were not calculated and reported as “–”)”; the “Dmax (maximal degradation) AURKB” value is “inactive”. In experiment [4], the “DC50 (half-maximal degradation concentration) AURKA” value was “– (compounds with degradation less than 25% were not calculated and reported as “–”)”; the “Dmax (maximal degradation) AURKA” value was “inactive”.
`Cc1ncsc1-c1ccc(CNC(=O)[C@@H]2C[C@@H](O)CN2C(=O)[C@@H](NC(=O)CCC(=O)NCCNC(=O)CCC(=O)N2CCN(c3ccc(Nc4nc(NC5CCCCC5)c5nc[nH]c5n4)cc3)CC2)C(C)(C)C)cc1` [Compound 55]: in experiment [1], the “Dmax (maximal degradation) TTK” value is on record as 28.40% and the DC50 turned out to be 5650 nM. Also, the EC50 in experiment [2] was 6910 nM. In experiment [3], the “DC50 (half-maximal degradation concentration) AURKB” value is “– (compounds with degradation less than 25% were not calculated and reported as “–”)”; the “Dmax (maximal degradation) AURKB” value is “inactive”. Moreover, in experiment [4], the “Dmax (maximal degradation) AURKA” value stood at 28.30% and the DC50 came to 9840 nM.
On to `COc1cc(N2CCC(OCC(=O)NCCCNc3cccc4c3C(=O)N(C3CCC(=O)NC3=O)C4=O)CC2)ccc1Nc1nc(Nc2ccccc2S(=O)(=O)C(C)C)c2nc[nH]c2n1` (centres unmarked) [Compound 35], for which, in experiment [1], the “DC50 (half-maximal degradation concentration) TTK” value is “– (compounds with degradation less than 25% were not calculated and reported as “–”)”; the “Dmax (maximal degradation) TTK” value is “inactive”. Further, the “EC50 (concentration that decreases cell viability by 50%)” value in experiment [2] was “— (compounds with decrease of cell viability less than 50% were not calculated and reported as “—”)”. Also, in experiment [3], the “DC50 (half-maximal degradation concentration) AURKB” value is “– (compounds with degradation less than 25% were not calculated and reported as “–”)”; the “Dmax (maximal degradation) AURKB” value is “inactive”. Also, in experiment [4], the “DC50 (half-maximal degradation concentration) AURKA” value is “– (compounds with degradation less than 25% were not calculated and reported as “–”)”; the “Dmax (maximal degradation) AURKA” value is “inactive”.
As to `Cc1ncsc1-c1ccc(CNC(=O)[C@@H]2C[C@@H](O)CN2C(=O)[C@@H](NC(=O)CCCC(=O)NCC(=O)N2CCN(c3ccc(Nc4nc(Nc5ccccc5S(=O)(=O)C(C)C)c5nc[nH]c5n4)cc3)CC2)C(C)(C)C)cc1` [Compound 46], in experiment [1], the “DC50 (half-maximal degradation concentration) TTK” value was “– (compounds with degradation less than 25% were not calculated and reported as “–”)”; the “Dmax (maximal degradation) TTK” value was “inactive”. Further, the EC50 in experiment [2] came out at 1980 nM. Also, in experiment [3], the “Dmax (maximal degradation) AURKB” value is reported as 29.40% and the DC50 came out at 466 nM. Besides, in experiment [4], the “Dmax (maximal degradation) AURKA” value is reported as 57.90% and the DC50 amounted to 772 nM.
`CC(C)S(=O)(=O)c1ccccc1Nc1nc(Nc2ccc(N3CCN(C(=O)COCCOCC(=O)Nc4cccc5c4C(=O)N(C4CCC(=O)NC4=O)C5=O)CC3)cc2)nc2[nH]cnc12` (centres unmarked) [Compound 18]: in experiment [1], the “DC50 (half-maximal degradation concentration) TTK” value is “– (compounds with degradation less than 25% were not calculated and reported as “–”)”; the “Dmax (maximal degradation) TTK” value is “inactive”. For the same molecule, in experiment [2], the EC50 worked out at 1130 nM. For the same molecule, in experiment [3], the “DC50 (half-maximal degradation concentration) AURKB” value is “– (compounds with degradation less than 25% were not calculated and reported as “–”)”; the “Dmax (maximal degradation) AURKB” value is on record as 22.20%. In addition, in experiment [4], the “Dmax (maximal degradation) AURKA” value is on record as 62.10% and the DC50 worked out at 1260 nM.
